Results as given in ChEMBL document CHEMBL4017451, “Discovery of a series of 1,3,4-oxadiazole-2(3H)-thione derivatives containing piperazine skeleton as potential FAK inhibitors” (Bioorg Med Chem, 2017).

Key:
SW 1116 = experiment: Antiproliferative activity against human SW1116 cells after 48 hrs by MTT assay; settings: SW 1116, 48 h
HepG2 = experiment: cells; settings: Homo sapiens, HepG2, 48 h
HeLa = experiment: cells; settings: Homo sapiens, 48 h
BGC-823 = experiment: cells; settings: Homo sapiens, BGC-823, 48 h
Description: Antiproliferative activity against human BGC823 cells after 48 hrs by MTT assay

For `COc1ccc(N2CCN(Cn3nc(-c4ccc5c(c4)OCCO5)oc3=S)CC2)cc1`, the IC50 (SW 1116) was 24.2 µM, the IC50 (HepG2) was > 50 µM and the IC50 (HeLa) was > 50 µM. The IC50 (BGC-823) was 18.9 µM.

In the case of `S=c1oc(-c2ccc3c(c2)OCCO3)nn1CN1CCN(c2cccc(Cl)c2Cl)CC1`, the IC50 (SW 1116) is reported as 37.1 µM, the IC50 (HepG2) is reported as > 50 µM and the IC50 (HeLa) is reported as > 50 µM. For the same compound, the IC50 (BGC-823) was 22.6 µM.

`S=c1oc(-c2ccc3c(c2)OCCO3)nn1CN1CCN(c2ccccc2Cl)CC1` was tested, and the IC50 (SW 1116) was > 50 µM, the IC50 (HepG2) was 11.4 µM and the IC50 (HeLa) was 37.4 µM. For the same compound, the IC50 (BGC-823) was > 50 µM.

`FC(F)(F)c1cccc(N2CCN(Cn3nc(-c4ccc5c(c4)OCCO5)oc3=S)CC2)c1` was tested, and the IC50 (SW 1116) was 47.1 µM, the IC50 (HepG2) was 5.78 µM and the IC50 (HeLa) was > 50 µM. The IC50 (BGC-823) was > 50 µM.

With `S=c1oc(-c2ccc3c(c2)OCCO3)nn1CN1CCN(c2cccc(Cl)c2)CC1` the IC50 (SW 1116) was > 50 µM, the IC50 (HepG2) was > 50 µM and the IC50 (HeLa) was 47.2 µM. The IC50 (BGC-823) was > 50 µM.

`Fc1ccc(N2CCN(Cn3nc(-c4ccc5c(c4)OCCO5)oc3=S)CC2)cc1` was tested, and the IC50 (SW 1116) was > 50 µM, the IC50 (HepG2) was > 50 µM and the IC50 (HeLa) was > 50 µM. For the same compound, the IC50 (BGC-823) was > 50 µM.

With `O=[N+]([O-])c1ccc(N2CCN(Cn3nc(-c4ccc5c(c4)OCCO5)oc3=S)CC2)cc1` the IC50 (SW 1116) was > 50 µM, the IC50 (HepG2) was 29.5 µM and the IC50 (HeLa) was 31.7 µM. For the same compound, the IC50 (BGC-823) was > 50 µM.

`S=c1oc(-c2ccc3c(c2)OCCO3)nn1CN1CCN(c2ccccc2)CC1` was tested, and the IC50 (SW 1116) was > 50 µM, the IC50 (HepG2) was > 50 µM and the IC50 (HeLa) was > 50 µM. The IC50 (BGC-823) was > 50 µM.

For `COc1cccc(N2CCN(Cn3nc(-c4ccc5c(c4)OCCO5)oc3=S)CC2)c1`, the IC50 (SW 1116) was > 50 µM, the IC50 (HepG2) was 21.4 µM and the IC50 (HeLa) was 18 µM. The IC50 (BGC-823) was > 50 µM.

With `S=c1oc(-c2ccc3c(c2)OCCO3)nn1CN1CCN(c2ccc(Cl)c(Cl)c2)CC1` the IC50 (SW 1116) was 33.4 µM, the IC50 (HepG2) was 23.8 µM and the IC50 (HeLa) was > 50 µM. The IC50 (BGC-823) was > 50 µM.

In the case of `S=c1oc(-c2ccc3c(c2)OCCO3)nn1CN1CCN(C(c2ccccc2)c2ccccc2)CC1`, the IC50 (SW 1116) is reported as 21.6 µM, the IC50 (HepG2) is reported as 9.12 µM and the IC50 (HeLa) is reported as > 50 µM. For the same compound, the IC50 (BGC-823) was > 50 µM.

`O=c1[nH]cc(F)c(=O)[nH]1` [FLUOROURACIL] gave an IC50 (SW 1116) of 18.5 µM, an IC50 (HepG2) of 13.3 µM and an IC50 (HeLa) of 9.02 µM. It also gave an IC50 (BGC-823) of 17.4 µM.

For `Cc1ccc(N2CCN(Cn3nc(-c4ccc5c(c4)OCCO5)oc3=S)CC2)c(C)c1`, the IC50 (SW 1116) was > 50 µM, the IC50 (HepG2) was 28.4 µM and the IC50 (HeLa) was > 50 µM. It also gave an IC50 (BGC-823) of 28.3 µM.

`S=c1oc(-c2ccc3c(c2)OCCO3)nn1CN1CCN(Cc2ccccc2)CC1` was tested, and the IC50 (SW 1116) was > 50 µM, the IC50 (HepG2) was 18 µM and the IC50 (HeLa) was 27.1 µM. For the same compound, the IC50 (BGC-823) was 28.7 µM.

In the case of `Fc1ccccc1N1CCN(Cn2nc(-c3ccc4c(c3)OCCO4)oc2=S)CC1`, the IC50 (SW 1116) is reported as 37.8 µM, the IC50 (HepG2) is reported as > 50 µM and the IC50 (HeLa) is reported as 37.3 µM. For the same compound, the IC50 (BGC-823) was > 50 µM.

For `S=c1oc(-c2ccc3c(c2)OCCO3)nn1CN1CCN(c2ccc(Cl)cc2)CC1`, the IC50 (SW 1116) was > 50 µM, the IC50 (HepG2) was > 50 µM and the IC50 (HeLa) was > 50 µM. For the same compound, the IC50 (BGC-823) was > 50 µM.

For `S=c1oc(-c2ccc3c(c2)OCCO3)nn1CN1CCN(c2ccccn2)CC1`, the IC50 (SW 1116) was 9.49 µM, the IC50 (HepG2) was 11.3 µM and the IC50 (HeLa) was 25.1 µM. The IC50 (BGC-823) was 25.9 µM.

In the case of `COc1ccccc1N1CCN(Cn2nc(-c3ccc4c(c3)OCCO4)oc2=S)CC1`, the IC50 (SW 1116) is reported as 16.9 µM, the IC50 (HepG2) is reported as 15.5 µM and the IC50 (HeLa) is reported as > 50 µM. It also gave an IC50 (BGC-823) of 19.5 µM.
